# Source: PubChem BioAssay AID328 (DTP/NCI, 2004)
# Values joined by “and” are separate entries in the source; they are usually repeats but may differ in a detail not shown here. Identical values can stand only once. Toxic doses and inconclusive results are not listed. Residues, ends and D or L forms follow the SMILES beside them.
# System: BDF1 mice, P388 leukemia ip, median survival T/C
# Assay: NCI In Vivo Anticancer Drug Screen. Data for tumor model P388 Leukemia (intraperitoneal) in B6D2F1 (BDF1) mice
# Details: endpoint: median survival time, higher = longer survival
# Method in brief: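 Reported as T/C, where T is the survival measurement in dosed animals and C the same measurement in vehicle controls.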
# [1] = dose: 100.0 mg/kg/injection, schedule: Q04DX003 (ip), vehicle: saline with Tween-80
# [2] = dose: 200.0 mg/kg/injection, schedule: Q04DX003 (ip), vehicle: saline with Tween-80
# [3] = dose: 400.0 mg/kg/injection, schedule: Q04DX003 (ip), vehicle: saline with Tween-80
# [4] = dose: 100.0 mg/kg/injection, schedule: Q01DX009 (ip), vehicle: saline
# [5] = dose: 200.0 mg/kg/injection, schedule: Q01DX009 (ip), vehicle: saline
# [6] = dose: 50.0 mg/kg/injection, schedule: Q04DX003 (ip), vehicle: saline with Tween-80
structure (smiles),measurement,setting,value
O=C1C=C2C(=CCOC2O)O1 (stereo unspecified),T/C,"dose: 0.01 mg/kg/injection, schedule: Q01DX009 (ip), vehicle: other",104 % of control
same,T/C,"dose: 0.03 mg/kg/injection, schedule: Q01DX009 (ip), vehicle: other",111 % of control
same,T/C,"dose: 0.1 mg/kg/injection, schedule: Q01DX009 (ip), vehicle: other",104 % of control
same,T/C,"dose: 3.0 mg/kg/injection, schedule: Q01DX009 (ip), vehicle: other",158 % of control
CC(NC(=O)/C=C\C(=O)O)c1ccccc1 (stereo unspecified),T/C,[1],100 % of control
same,T/C,[2],91 % of control
same,T/C,[3],112 % of control
CCOC(=O)C1NC(=S)NCC1=O (stereo unspecified),T/C,"dose: 100.0 mg/kg/injection, schedule: Q01DX009 (ip), vehicle: Klucel (hydroxypropylcellulose) (HPC)",110 % of control
same,T/C,"dose: 200.0 mg/kg/injection, schedule: Q01DX009 (ip), vehicle: Klucel (hydroxypropylcellulose) (HPC)",110 % of control
CC(=O)C1COC(O)C1C (stereo unspecified),T/C,"dose: 0.63 mg/kg/injection, schedule: Q01DX010 (ip), vehicle: saline",95 % of control
same,T/C,"dose: 1.25 mg/kg/injection, schedule: Q01DX009 (ip), vehicle: saline",115 % of control and 103 % of control
same,T/C,"dose: 1.25 mg/kg/injection, schedule: Q01DX010 (ip), vehicle: saline",100 % of control
same,T/C,"dose: 2.5 mg/kg/injection, schedule: Q01DX010 (ip), vehicle: saline",116 % of control
O=C(O)C1CC(c2ccccc2)OC1=O (stereo unspecified),T/C,"dose: 100.0 mg/kg/injection, schedule: Q01DX009 (ip), vehicle: gum acacia",92 % of control
same,T/C,"dose: 100.0 mg/kg/injection, schedule: Q04DX003 (ip), vehicle: gum acacia",100 % of control
same,T/C,"dose: 200.0 mg/kg/injection, schedule: Q01DX009 (ip), vehicle: gum acacia",92 % of control
same,T/C,"dose: 200.0 mg/kg/injection, schedule: Q04DX003 (ip), vehicle: gum acacia",104 % of control
same,T/C,"dose: 400.0 mg/kg/injection, schedule: Q04DX003 (ip), vehicle: gum acacia",108 % of control
Cc1ccc(N2CC(=O)N3CCCC(c4ccccc4)N3C(=O)C2)cc1 (stereo unspecified),T/C,"dose: 50.0 mg/kg/injection, schedule: Q01DX005 (ip), vehicle: saline with Tween-80",97 % of control
same,T/C,"dose: 100.0 mg/kg/injection, schedule: Q01DX005 (ip), vehicle: saline with Tween-80",94 % of control
same,T/C,"dose: 200.0 mg/kg/injection, schedule: Q01DX005 (ip), vehicle: saline with Tween-80",94 % of control
COC(=O)C1=COC2OC3CC1C2C(C)O3 (stereo unspecified),T/C,"dose: 12.5 mg/kg/injection, schedule: Q01DX009 (ip), vehicle: Klucel (hydroxypropylcellulose) (HPC)",99 % of control
same,T/C,"dose: 25.0 mg/kg/injection, schedule: Q01DX009 (ip), vehicle: Klucel (hydroxypropylcellulose) (HPC)",98 % of control
same,T/C,"dose: 50.0 mg/kg/injection, schedule: Q01DX009 (ip), vehicle: Klucel (hydroxypropylcellulose) (HPC)",115 % of control
c1ccc(-c2c[n+]3cc4ccccc4cc3cn2)cc1,T/C,[4],95 % of control
same,T/C,"dose: 100.0 mg/kg/injection, schedule: Q04DX003 (ip), vehicle: saline",100 % of control
same,T/C,[5],91 % of control
same,T/C,"dose: 200.0 mg/kg/injection, schedule: Q04DX003 (ip), vehicle: saline",113 % of control
same,T/C,"dose: 400.0 mg/kg/injection, schedule: Q01DX009 (ip), vehicle: saline",91 % of control
same,T/C,"dose: 400.0 mg/kg/injection, schedule: Q04DX003 (ip), vehicle: saline",95 % of control
C[n+]1ccc(/C=C/c2ccc(Cl)c(Cl)c2)cc1,T/C,"dose: 1.5 mg/kg/injection, schedule: Q01DX009 (ip), vehicle: Klucel (hydroxypropylcellulose) (HPC)",95 % of control
same,T/C,"dose: 3.0 mg/kg/injection, schedule: Q01DX009 (ip), vehicle: Klucel (hydroxypropylcellulose) (HPC)",109 % of control
same,T/C,"dose: 3.0 mg/kg/injection, schedule: Q04DX003 (ip), vehicle: Klucel (hydroxypropylcellulose) (HPC)",100 % of control
same,T/C,"dose: 6.0 mg/kg/injection, schedule: Q04DX003 (ip), vehicle: Klucel (hydroxypropylcellulose) (HPC)",100 % of control
CC[C@@H]1C[C@H]2CC3c4c(c5cc(OC)ccc5n4C)CCN(C2)C31,T/C,"dose: 50.0 mg/kg/injection, schedule: Q01DX009 (ip), vehicle: saline with Tween-80",102 % of control
same,T/C,"dose: 100.0 mg/kg/injection, schedule: Q01DX009 (ip), vehicle: saline with Tween-80",105 % of control
same,T/C,"dose: 200.0 mg/kg/injection, schedule: Q01DX009 (ip), vehicle: saline with Tween-80",102 % of control
CN(C)c1ccc(/C=C/c2ccncc2)cc1,T/C,"dose: 3.13 mg/kg/injection, schedule: Q01DX009 (ip), vehicle: saline with Tween-80",115 % of control
CC(=O)OC(c1ccccc1)C(Cl)(Cl)Cl (stereo unspecified),T/C,[1],100 % of control
same,T/C,[2],105 % of control
same,T/C,[3],110 % of control
NC(Cc1c[nH]c2cc(N(CCCl)CCCl)ccc12)C(=O)O (stereo unspecified),T/C,"dose: 0.75 mg/kg/injection, schedule: Q01DX009 (sc), vehicle: olive oil, sesame oil, peanut oil",115 % of control
same,T/C,"dose: 1.5 mg/kg/injection, schedule: Q01DX009 (sc), vehicle: olive oil, sesame oil, peanut oil",123 % of control
same,T/C,"dose: 1.5 mg/kg/injection, schedule: Q04DX003 (sc), vehicle: olive oil, sesame oil, peanut oil",113 % of control
same,T/C,"dose: 3.0 mg/kg/injection, schedule: Q01DX009 (sc), vehicle: olive oil, sesame oil, peanut oil",100 % of control
same,T/C,"dose: 3.0 mg/kg/injection, schedule: Q04DX003 (sc), vehicle: olive oil, sesame oil, peanut oil",177 % of control
same,T/C,"dose: 4.5 mg/kg/injection, schedule: Q04DX003 (sc), vehicle: olive oil, sesame oil, peanut oil",162 % of control
same,T/C,"dose: 6.0 mg/kg/injection, schedule: Q04DX003 (sc), vehicle: olive oil, sesame oil, peanut oil",154 % of control
CCN(CC)CC(Cl)CN(CC)CC,T/C,[6],110 % of control
same,T/C,[1],105 % of control
same,T/C,[2],100 % of control
O=C(O)CCN1CCCc2ccccc21,T/C,"dose: 50.0 mg/kg/injection, schedule: Q01DX009 (ip), vehicle: other",95 % of control
same,T/C,"dose: 100.0 mg/kg/injection, schedule: Q01DX009 (ip), vehicle: other",104 % of control
same,T/C,"dose: 200.0 mg/kg/injection, schedule: Q01DX009 (ip), vehicle: other",95 % of control
NCCOCC(N)C(=O)O (stereo unspecified),T/C,"dose: 50.0 mg/kg/injection, schedule: Q01DX009 (ip), vehicle: saline",109 % of control
same,T/C,[4],105 % of control
same,T/C,[5],98 % of control
O=CC1(C(O)C2SCCCS2)SCCCS1 (stereo unspecified),T/C,"dose: 12.5 mg/kg/injection, schedule: Q01DX001 (ip), vehicle: other",95 % of control
same,T/C,"dose: 25.0 mg/kg/injection, schedule: Q01DX001 (ip), vehicle: other",104 % of control
same,T/C,"dose: 50.0 mg/kg/injection, schedule: Q01DX001 (ip), vehicle: other",109 % of control
CC(C)C(NC(=O)C(NC(=O)C(CCCN=C(N)N)NC(=O)C(N)CCCCN)C(C)C)C(N)=O (stereo unspecified) (H-KRVV-NH2; configuration not given here),T/C,"dose: 12.5 mg/kg/injection, schedule: Q04DX003 (ip), vehicle: water",101 % of control
same,T/C,"dose: 25.0 mg/kg/injection, schedule: Q04DX003 (ip), vehicle: water",97 % of control
same,T/C,"dose: 50.0 mg/kg/injection, schedule: Q04DX003 (ip), vehicle: water",107 % of control
same,T/C,"dose: 100.0 mg/kg/injection, schedule: Q04DX003 (ip), vehicle: water",92 % of control
same,T/C,"dose: 200.0 mg/kg/injection, schedule: Q04DX003 (ip), vehicle: water",93 % of control
CC1=C(/C=C/C(C)=C/C=C/C(C)=C/C(=O)O)C(C)(C)CCC1,T/C,"dose: 6.25 mg/kg/injection, schedule: Q01DX009 (ip), vehicle: saline with Tween-80",95 % of control
same,T/C,"dose: 12.5 mg/kg/injection, schedule: Q01DX009 (ip), vehicle: saline with Tween-80",104 % of control
same,T/C,"dose: 25.0 mg/kg/injection, schedule: Q01DX009 (ip), vehicle: saline with Tween-80",104 % of control
C[As](C)Sc1ccnc(S[As](C)C)n1,T/C,[6],100 % of control
same,T/C,[1],100 % of control
same,T/C,[2],104 % of control
CN(N)c1ccccc1,T/C,"dose: 6.25 mg/kg/injection, schedule: Q04DX003 (ip), vehicle: saline with Tween-80",93 % of control
same,T/C,"dose: 12.5 mg/kg/injection, schedule: Q04DX003 (ip), vehicle: saline with Tween-80",95 % of control
same,T/C,"dose: 25.0 mg/kg/injection, schedule: Q04DX003 (ip), vehicle: saline with Tween-80",90 % of control
same,T/C,[6],104 % of control and 105 % of control
same,T/C,[1],113 % of control
same,T/C,[2],123 % of control
O=C1C=CC(=O)N1c1ccc([N+](=O)[O-])cc1,T/C,"dose: 5.25 mg/kg/injection, schedule: Q01DX009 (ip), vehicle: Klucel (hydroxypropylcellulose) (HPC)",90 % of control
same,T/C,"dose: 7.5 mg/kg/injection, schedule: Q04DX003 (ip), vehicle: Klucel (hydroxypropylcellulose) (HPC)",116 % of control
same,T/C,"dose: 10.5 mg/kg/injection, schedule: Q01DX009 (ip), vehicle: Klucel (hydroxypropylcellulose) (HPC)",90 % of control
same,T/C,"dose: 15.0 mg/kg/injection, schedule: Q04DX003 (ip), vehicle: Klucel (hydroxypropylcellulose) (HPC)",95 % of control
